The record followed here is US20190022198A1, “Individualized Immunomodulation Therapy for Neurodegenerative Disorders, CNS Injury and Age-Related Dementia” (Yeda Research and Development Co. Ltd., priority 2012, published 2019).

One assay concerns CP epithelial cells. Nature of the assay: Primary culture of choroid plexus cells treated with cytokines, mRNA by real-time qPCR. Format: cell-based, mouse. The conditions noted are these: TNF-α 100 ng/ml. The protocol: Mice were perfused from the left ventricle of the heart with PBS, and their CPs were removed under a dissecting microscope (Stemi DV4; Zeiss) in PBS into tubes containing 0.25% trypsin, and kept on ice. The tubes were shaken for 20 minutes at 37° C. and the tissue was dissociated by pipetting. The cell suspension was washed in culture medium for epithelial cells (DMEM/HAM's F12 (Invitrogen Corp)) supplemented with 10% FCS (Sigma-Aldrich), 1 mM 1-glutamine, 1 mM sodium pyruvate, 100 U/ml penicillin, […] streptomycin, 5 μg/ml Insulin, 20 μM Ara-C, 5 ng/ml sodium selenite, 10 ng/ml EGF, and cultured (˜250,000 cells/well) at 37° C., 5% CO2 in 24-well plates (Corning Incorporated) coated with poly-L-lysine (PLL; Sigma-Aldrich). After 24 hours, the medium was changed, and the cells were either left untreated, or treated with the indicated cytokines (all purchased from PeproTech): IFN-γ, IL-4, IL-10, IL-17A, GM-CSF, IL-6, IL-1β or TNF-α or their combinations for 24 h. Cell viability was quantified by Trypan blue staining after detachment of the cells with 0.25% trypsin for 10 minutes at 37° C. Neutralizing antibodies to TNF-R1 or TNF-R2 ([…], BioLegend) were added 1 h prior to the addition of TNF-α (100 ng/ml). RNA was isolated using the ZR RNA microprep kit (Zymo Research) according to the manufacturer's protocol.
Total RNA of the hippocampus was extracted with TRI reagent (MRC, Cincinnati, Ohio) and was purified from the lysates and spinal cord using the RNeasy kit (Qiagen, Hilden, Germany). Total RNA of the choroid plexus was extracted using the RNA MicroPrep kit (Zymo Research). mRNA (1 μg) was converted to cDNA using High Capacity cDNA Reverse Transcription Kit (Applied Biosystems). The expression of specific mRNAs was assayed using fluorescence based real-time quantitative PCR (qPCR). qPCR reactions were performed using Power SYBR Green PCR Master Mix (Applied Biosystems). Quantification reactions were performed in triplicates for each sample using the standard curve method. Glyceraldehyde 3-phosphate dehydrogenase (GAPDH), Peptidylprolyl isomerase A (PPIA), and hypoxanthine guanine phosphoribosyltransferase (HPRT) were chosen as reference genes according to their stability in the target tissue. The amplification cycles were 95° C. for 5 sec, 60° C. for 20 sec, and 72° C. for 15 sec. At the end of the assay, a melting curve was constructed to evaluate the specificity of the reaction. For some genes, the cDNA was pre-amplified in 14 PCR cycles with non-random PCR primers, thus increasing the sensitivity of the subsequent real-time PCR analysis (PreAmp Master Mix Kit, Applied Biosystems). For these genes, expression was determined using TaqMan Real-Time PCR, according to manufacturer's instructions (Applied Biosystems). All quantitative real-time PCR reactions were performed and analyzed using the 7500 Real-Time PCR System (Applied Biosystems). The following TaqMan probes were used: Mm02342430_g1 (ppia), Mm00446968_m1 (hprt), Mm00445260_m1 (il-4), Mm01168134_m1 (ifn-γ), Mm00441238_m1 (ccl11), Mm00475988_m1 (arg-1). In addition, the following primers were used: […]

The subject of a further assay is CP cells. In words: Transepithelial migration assay of CD115+ monocytes across CP cells towards CCL2. The class given is cell-based, mouse. The conditions noted are these: TNF-α in combination with IFN-γ (data not shown). The protocol:
For transepithelial migration assay, CP cells were isolated as above and plated on 5-μm pore size, 6.5 mm diameter polycarbonate filters in 24-well Transwell chambers (Costar, Corning) and grown for 7 days. The medium of the upper chamber was then replaced with 100 μl of freshly isolated CD115^+ monocytes (1.5×10^6 cells/ml in RPMI 1640 supplemented with 0.5% BSA) and the inserts were transferred to new wells containing RPMI 1640 supplemented with 0.5% BSA and 100 ng/ml CCL2 (PeproTech). The Transwells were then incubated at 37° C., 5% CO2. After 24 h the migrating cells at the lower chamber were removed using cell scraper and CD11b^+ cells were quantified by flow cytometry.
CD115^+ monocytes were isolated as previously reported (Shechter et al., 2009). Briefly, BM cells were harvested from the femur and tibiae of naïve mice, and enriched for mononuclear cells on a Ficoll density gradient. The CD115^+ BM monocyte population was isolated by MACS enrichment using biotinylated anti-CD115 antibodies and streptavidin-coupled magnetic beads (Miltenyi Biotec) according to the manufacturer's protocols. Monocyte purity was checked by flow cytometry based on CD11b reactivity and was 90%.

In a further assay the test system is cultured CP cells. In words: Immunocytochemistry of cultured CP cells treated with cytokines. Format: cell-based, mouse. The conditions noted are these: cultured cells following TNF-α treatment (data not shown). Here is the method: For whole mount staining of the choroid plexus, isolated tissues were fixed with 2.5% paraformaldehyde (PFA) for several hours, and subsequently transferred to PBS containing 0.05% sodium azide. Prior to staining, the dissected tissues were washed and blocked (20% horse serum, 0.3% Triton X-100, and PBS) for 1 h at room temperature with shaking. Whole mount staining with primary (in PBS containing 2% horse serum and 0.3% Triton X-100) and secondary antibodies (in PBS), was performed for 1h at room temperature, with shaking. Each step was followed by three washes in PBS. The tissues were mounted onto slides, using Immu-mount (9990402, from Thermo), and sealed with cover-slips. For staining of sectioned brains, two different tissue preparation protocols (paraffin embedded and microtomed frozen sections) were applied, as previously described (Ziv Y et al (2006b)). For immunocytochemistry, CP cells were isolated as described above and were grown on PLL coated cover slips for 7 days, replacing the medium every 3 days. Cytokines were added for the last 3 days of culture. Following 7 days of culture, the wells were washed with PBS and the cells were fixed either with 2.5% paraformaldehyde for 30 min or methanol-acetone (1:1) for 10 min at −20° C., following by 2 washing steps with PBS. For CCL11 staining, cells were treated with Brefeldin-A 2 hours prior to fixation in order to arrest protein secretion. The cover slips of the cultured CP cells were incubated with the indicated antibodies and mounted with Glycerol Vinyl Alcohol (GVA) mounting solution (Invitrogen). The following primary antibodies were used: rat anti-CD3 (Abcam); rat anti-ICAM-1 (1:100; Abcam), chicken anti-vimentin (1:500, Millipore), rabbit anti-Iba1 (1:300; Wako), goat anti-IL-10 (1:20; R&D), mouse anti-MHC-II (Abcam); mouse anti-Arginase-1 (BD Biosciences); mouse anti-Cytokeratin (Covance); rat anti-CCL11 (R&D Systems); rabbit anti-ZO-1 (Invitrogen); and rabbit anti-Claudin-1 (Invitrogen). Secondary antibodies included: Cy2/Cy3-conjugated donkey anti-rat, mouse or rabbit antibody and Cy3 conjugated donkey anti-mouse, goat, rat, chicken or rabbit (1:200; all from Jackson Immuno Research). The slides were exposed to Hoechst stain (1:2000; Invitrogen) for 1 min. Two negative controls were routinely used in immunostaining procedures, staining with isotype control antibody followed by secondary antibody, and staining with secondary antibody alone. For morphological quantification, average cross-sectional area of epithelial cells was measured following Nissl staining. Cell borders (20-25 cells per picture) were marked and the area was quantified using Image-Pro Plus software in a blinded fashion.

In a further assay the test system is mSOD1 mice. Nature of the assay: MOG immunization of mSOD1 mice: EAE symptoms, CP trafficking molecules, leukocytes in CSF and spinal cord, survival. The class given is in vivo, mouse.
For a further assay, the system named is WT, mSOD and 5XFAD mice. Nature of the assay: Active immunization with MOG and monitoring Tregs and Th1 cells in the blood (Example 19). Format: in vivo, mouse. The protocol: 200 μg of MOG35-55 (GL Biochem Ltd., Shanghai) are emulsified in 200 μl […] Freund's adjuvant (IFA) containing 0.5 mg/ml M. tuberculosis (strain H37Ra; BD Diagnostics), and 200 μl is injected subcutaneously to three groups of mice: WT, mSOD and 5XFAD. Control mice for each group are injected subcutaneously with PBS. At days 7, 14 and 28 post immunization, the mice are anesthetized, blood is collected into heparin containing tubes and […] of each sample are treated with ACK lysing buffer (Life Technologies) to remove erythrocytes. For intracellular staining of IFN-γ (corresponding to Th1 cells) the cells are incubated with PMA (10 ng/ml; Sigma-Aldrich) and ionomycin (250 ng/ml; Sigma-Aldrich) for 6 h, and Brefeldin-A ([…]; Sigma-Aldrich) was added for the last 4 h. Intracellular labeling is done with BD Cytofix/Cytoperm Plus Fixation/Permeabilization kit (cat. no. 555028) according to the manufacturer's protocol. For intracellular staining of Foxp3^+ T regulatory cells (Tregs), the cells are stained according to manufacturer's protocol (Mouse Regulatory T Cell Staining Kit, eBioscience, cat. No. 88-8111-40). […] Flow cytometry analysis is performed on each sample using a BD Biosciences LSRII flow cytometer, and the acquired data is analyzed using FlowJo software (Tree star). The ratio between Tregs and Th1 cells is calculated for each sample.

The subject of the next assay is WT mice. Format: in vivo, mouse.

As for TNF-α, in the assay on CP epithelial cells (CP epithelial cells, 24 h, IL-1β 100 ng/ml, IL-6 10 ng/ml), the “expression of IFN-γ-receptor (IFN-γR) mRNA” value is “elevated the expression of IFN-γ-receptor”. For the same substance, the MADCAM-1 expression result with CP epithelial cells (cultured CP cells, 24 hours, IFN-γ independent) is reported as “upregulated”. Moreover, the “monocyte trafficking through the CP towards CCL2” value with CP cells is reported as “stimulated the CP to mediate monocyte trafficking towards CCL2”. Further, the IFN-γR immunostaining entry with cultured CP cells was “elevation of IFN-γR”.

Consider “MOG35-55 (MEVGWYRSPFSRVVHLYRNGK; emulsified in adjuvant) [emulsified in incomplete Freund's adjuvant containing 0.5 mg/ml M. tuberculosis]”, for which the “total leukocyte numbers, including T cells and CD4+ T cells, in the CSF” value with mSOD1 mice (14 days post immunization) is reported as “increase in total leukocyte numbers”. Moreover, the “expression of trafficking molecules (ICAM-1, CCL5, CXCL9, CXCL10) in the CP” value with mSOD1 mice (14 days post immunization, compared to non-immunized mice) is “significant increase in the expression of trafficking molecules”. For the same substance, in the assay with mSOD1 mice (28 days post immunization), the “CD4+ T cell numbers in the spinal cord parenchyma” value was “remained elevated” and the “local expression of IL-10 in the spinal cord” value is “increased local expression of IL-10”. The “spatial distribution of infiltrating T cells” value in the assay with mSOD1 mice (28 days post immunization, immunized mSOD1 mice (data not shown)) is “T cells were found in the gray matter of the spinal cord ventral horn”. The “lifespan compared to PBS injected mice” value in the assay on mSOD1 mice (average survival age and Kaplan-Meier curves, logrank p=0.024) is “significantly longer lifespan”. Besides, in the assay with mSOD1 mice (day 28 post immunization), the “Foxp3+ Tregs in the CSF” value was “significant elevation of Tregs” and the “Foxp3+ Tregs in the spinal cord parenchyma” value is given as “significant elevation of Tregs”. Besides, in the assay with mSOD1 mice (immunized mSOD1 mice), the “mice still alive at the age of 154 days” value came to 90%. The average survival with mSOD1 mice (immunized mSOD1 mice, n=10 per group) came to 159.5 ± 2.2 days. In the assay with mSOD1 mice (immunized versus untreated mSOD1 mice), the increased average survival was determined as 15 days. Further, in the assay on mSOD1 mice (mouse, in vivo), the “CD4+ T cells in the spinal cord parenchyma” value is “increased infiltration of CD4^+ T cells” and the “expression of TGF-β1 in the spinal cord parenchyma” value was “elevated”. Besides, the “ratio of Tregs to Th1 cells in blood” value in the assay on WT, mSOD and 5XFAD mice (7 or 14 days following immunization, versus control group) is recorded as “lower”. Besides, in the assay on WT, mSOD and 5XFAD mice (28 days following immunization, relative to 7 or 14 days), the “ratio of Tregs to Th1 cells in blood” value is on record as “increase”. Also, the “infiltrating T cells in the CSF” value with WT mice (14 days post immunization, relative to naïve or OVA-immunized mice) was “increase of infiltrating T cells”. Moreover, in the assay on WT mice (mouse, in vivo), the “expression of ICAM-1 by the CP epithelium” value is reported as “induced the expression of ICAM-1”.
